From patent US8440708B2, “Triazole-substituted arylamides as P2X3 and P2X2/3 antagonists” (Roche Palo Alto LLC, priority 2007, dated 2013)
Like-named read-outs stand apart in the source and are kept apart here.

Legend:
rat P2X3 receptor = molecular target: T1, rat P2X3 receptor (Rattus norvegicus, UniProt P49654); assay: P2X3/P2X2/3 FLIPR (Fluorometric Imaging Plate Reader) Assay, P2X3; type: cell-based; conditions: for Ki: CHO-K1 cells transfected with rat P2X3, agonist α,β-meATP 1 μM, Table 1, read-out: P2X3 pKi (converted)
T1 construct: expressed in transfected cells; host or cells: CHO-K1
T1 sequence (P49654 1-397): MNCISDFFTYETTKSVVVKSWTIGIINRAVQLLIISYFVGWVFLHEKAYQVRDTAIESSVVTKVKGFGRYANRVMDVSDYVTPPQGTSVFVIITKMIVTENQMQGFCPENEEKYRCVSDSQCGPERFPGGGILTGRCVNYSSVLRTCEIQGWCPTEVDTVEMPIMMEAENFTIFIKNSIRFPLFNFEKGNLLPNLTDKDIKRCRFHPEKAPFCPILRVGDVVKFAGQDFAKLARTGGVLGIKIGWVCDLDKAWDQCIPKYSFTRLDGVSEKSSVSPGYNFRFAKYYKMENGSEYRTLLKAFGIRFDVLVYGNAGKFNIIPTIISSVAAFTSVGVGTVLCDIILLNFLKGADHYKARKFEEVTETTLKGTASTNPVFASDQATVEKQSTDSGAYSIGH
Protocol: (§1) P2X3/P2X2/3 FLIPR (Fluorometric Imaging Plate Reader) Assay
(§2) CHO-K1 cells were transfected with cloned rat P2X3 or human P2X2/3 receptor subunits and passaged in flasks. 18-24 hours before the FLIPR experiment, cells were released from their flasks, centrifuged, and resuspended in nutrient medium at 2.5×10^5 cells/ml. The cells were aliquoted into black-walled 96-well plates at a density of 50,000 cells/well and incubated overnight in 5% CO2 at 37° C. On the day of the experiment, cells were washed in FLIPR buffer (calcium- and magnesium-free Hank's balanced salt solution, 10 mM HEPES, 2 mM CaCl2, 2.5 mM probenecid; FB). Each well received 100 μl FB and 100 μl of the fluorescent dye Fluo-3 AM [2 μM final conc.]. After a 1 hour dye loading incubation at 37° C., the cells were washed 4 times with FB, and a final 75 μl/well FB was left in each well.
(§3) Test compounds (dissolved in DMSO at 10 mM and serially diluted with FB) or vehicle were added to each well (25 μl of a 4× solution) and allowed to equilibrate for 20 minutes at room temperature. The plates were then placed in the FLIPR and a baseline fluorescence measurement (excitation at 488 nm and emission at 510-570 nm) was obtained for 10 seconds before a 100 μl/well agonist or vehicle addition. The agonist was a 2× solution of α,β-meATP producing a final concentration of 1 μM (P2X3) or 5 μM (P2X2/3). Fluorescence was measured for an additional 2 minutes at 1 second intervals after agonist addition. A final addition of ionomycin (5 μM, final concentration) was made to each well of the FLIPR test plate to establish cell viability and maximum fluorescence of dye-bound cytosolic calcium. Peak fluorescence in response to the addition of α,β-meATP (in the absence and presence of test compounds) was measured and inhibition curves generated using nonlinear regression. PPADS, a standard P2X antagonist, was used as a positive control.

human P2X2/3 receptor = molecular target: T2, human P2X2/3 receptor (Homo sapiens, UniProt P56373+Q9UBL9); assay: P2X3/P2X2/3 FLIPR (Fluorometric Imaging Plate Reader) Assay, P2X2/3; type: cell-based
T2 construct: expressed in transfected cells; host or cells: CHO-K1
T2 sequence (Q9UBL9 1-471): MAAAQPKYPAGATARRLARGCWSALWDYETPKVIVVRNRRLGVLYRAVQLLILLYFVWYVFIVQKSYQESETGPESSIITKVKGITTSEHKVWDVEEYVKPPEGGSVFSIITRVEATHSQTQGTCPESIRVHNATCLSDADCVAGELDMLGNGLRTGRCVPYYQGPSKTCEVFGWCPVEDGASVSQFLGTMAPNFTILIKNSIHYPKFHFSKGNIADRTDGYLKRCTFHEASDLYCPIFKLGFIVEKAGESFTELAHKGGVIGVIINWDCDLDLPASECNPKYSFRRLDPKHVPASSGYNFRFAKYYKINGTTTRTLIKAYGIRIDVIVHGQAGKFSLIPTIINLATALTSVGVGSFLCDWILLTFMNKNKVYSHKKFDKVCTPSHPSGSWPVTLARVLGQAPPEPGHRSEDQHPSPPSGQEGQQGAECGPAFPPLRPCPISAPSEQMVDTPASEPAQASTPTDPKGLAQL
T2 sequence (P56373 1-397): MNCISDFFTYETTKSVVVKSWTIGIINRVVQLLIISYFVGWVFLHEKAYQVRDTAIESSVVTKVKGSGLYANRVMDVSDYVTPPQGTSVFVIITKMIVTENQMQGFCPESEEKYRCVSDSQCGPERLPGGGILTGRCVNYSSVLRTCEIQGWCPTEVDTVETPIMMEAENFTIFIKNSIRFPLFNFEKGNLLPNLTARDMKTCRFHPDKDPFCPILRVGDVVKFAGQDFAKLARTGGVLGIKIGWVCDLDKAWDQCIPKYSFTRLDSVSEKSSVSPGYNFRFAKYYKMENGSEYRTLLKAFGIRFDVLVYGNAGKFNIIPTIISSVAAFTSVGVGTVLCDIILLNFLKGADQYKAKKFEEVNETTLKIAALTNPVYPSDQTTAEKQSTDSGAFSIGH
Protocol: as §1, §2, §3

[1] = CHO-K1 cells transfected with human P2X2/3, agonist α,β-meATP 5 μM, Table 1, read-out: P2X2/3 pKi (converted)

With Cc1ccc(-c2cc(C(=O)NC(C)CO)cc(-n3ncnc3C(C)C)c2)cc1 (stereo not drawn) [Compound 16, 5-(5-Isopropyl-[1,2,4]triazol-1-yl)-4′-methyl-biphenyl-3-carboxylic acid (2-hydroxy-1-methyl-ethyl)-amide] the Ki (rat P2X3 receptor) was 0.00355 µM and the Ki (human P2X2/3 receptor; [1]) was 0.295 µM.

Cc1ccc(-c2cc(C(=O)N[C@@H](C)CO)cc(-n3ncnc3C(C)C)c2)cc1 [Compound 17, 5-(5-Isopropyl-[1,2,4]triazol-1-yl)-4′-methyl-biphenyl-3-carboxylic acid ((S)-2-hydroxy-1-methyl-ethyl)-amide] showed a Ki (rat P2X3 receptor) of 0.00288 µM and a Ki (human P2X2/3 receptor; [1]) of 0.141 µM.

Cc1ccc(-c2cc(C(=O)NC(C)c3cnccn3)cc(-n3ncnc3C(C)C)c2)cc1 (stereo not drawn) [Compound 18, 5-(5-Isopropyl-[1,2,4]triazol-1-yl)-4′-methyl-biphenyl-3-carboxylic acid (1-pyrazin-2-yl-ethyl)-amide] gave a Ki (rat P2X3 receptor) of 0.00309 µM and a Ki (human P2X2/3 receptor; [1]) of 0.024 µM.

In the case of Cc1ccc(-c2cc(C(=O)NC(C)c3cnccn3)cc(-n3cnnc3C(C)C)c2)cc1 (stereo not drawn) [Compound 19], the Ki (rat P2X3 receptor) is reported as 0.00589 µM and the Ki (human P2X2/3 receptor; [1]) is reported as 1.29 µM.

Work on COC[C@@H](C)NC(=O)c1cc(-c2ccc(C)cc2)cc(-n2cnnc2C(C)C)c1 [Compound 20, 5-(3-Isopropyl-[1,2,4]triazol-4-yl)-4′-methyl-biphenyl-3-carboxylic acid ((R)-2-methoxy-1-methyl-ethyl)-amide] yielded a Ki (rat P2X3 receptor) of 0.372 µM and a Ki (human P2X2/3 receptor; [1]) of 10 µM.

Cc1ccc(-c2cc(C(=O)N[C@@H](C)CO)cc(-n3cnnc3C(C)C)c2)cc1 [Compound 21, 5-(3-Isopropyl-[1,2,4]triazol-4-yl)-4′-methyl-biphenyl-3-carboxylic acid ((S)-2-hydroxy-1-methyl-ethyl)-amide] showed a Ki (rat P2X3 receptor) of 0.977 µM and a Ki (human P2X2/3 receptor; [1]) of 10 µM.

Molecule Cc1ccc(-c2cc(C(=O)NC(C)CO)cc(-n3nncc3C(C)C)c2)c(F)c1 (stereo not drawn) [Compound 23, 2′-Fluoro-5-(5-isopropyl-[1,2,3]triazol-1-yl)-4′-methyl-biphenyl-3-carboxylic acid (2-hydroxy-1-methyl-ethyl)-amide] has a Ki (rat P2X3 receptor) of 0.00575 µM and a Ki (human P2X2/3 receptor; [1]) of 0.355 µM.

Work on Cc1ccc(-c2cc(C(=O)N[C@@H](C)CO)cc(-n3nncc3C(C)C)c2)c(F)c1 [Compound 24, 2′-Fluoro-5-(5-isopropyl-[1,2,3]triazol-1-yl)-4′-methyl-biphenyl-3-carboxylic acid ((S)-2-hydroxy-1-methyl-ethyl)-amide] yielded a Ki (rat P2X3 receptor) of 0.00331 µM and a Ki (human P2X2/3 receptor; [1]) of 0.324 µM.

With Cc1ccc(-c2cc(C(=O)NC(C)c3cnccn3)cc(-n3nncc3C(C)C)c2)c(F)c1 (stereo not drawn) [Compound 25, 2′-Fluoro-5-(5-isopropyl-[1,2,3]triazol-1-yl)-4′-methyl-biphenyl-3-carboxylic acid (1-pyrazin-2-yl-ethyl)-amide] the Ki (rat P2X3 receptor) was 0.012 µM and the Ki (human P2X2/3 receptor; [1]) was 0.0724 µM.

With Cc1ccc(-c2cc(C(=O)NC(C)CO)cc(-n3cnnc3C(C)C)c2)cc1 (stereo not drawn) [Compound 26, 5-(3-Isopropyl-[1,2,4]triazol-4-yl)-4′-methyl-biphenyl-3-carboxylic acid (2-hydroxy-1-methyl-ethyl)-amide] the Ki (rat P2X3 receptor) was 0.155 µM and the Ki (human P2X2/3 receptor; [1]) was 10 µM.

Cc1ccc(-c2cc(C(=O)NC(C)CO)cc(-n3nc(C)nc3C(C)C)c2)cc1 (stereo not drawn) [Compound 28, 5-(5-Isopropyl-3-methyl-[1,2,4]triazol-1-yl)-4′-methyl-biphenyl-3-carboxylic acid (2-hydroxy-1-methyl-ethyl)-amide] was tested, and the Ki (rat P2X3 receptor) was 0.0646 µM and the Ki (human P2X2/3 receptor; [1]) was 10 µM.

Molecule Cc1ccc(-c2cc(C(=O)N[C@@H](C)CO)cc(-n3nc(C)nc3C(C)C)c2)cc1 [Compound 29, 5-(5-Isopropyl-3-methyl-[1,2,4]triazol-1-yl)-4′-methyl-biphenyl-3-carboxylic acid ((S)-2-hydroxy-1-methyl-ethyl)-amide] has a Ki (rat P2X3 receptor) of 0.0468 µM and a Ki (human P2X2/3 receptor; [1]) of 3.63 µM.

Molecule Cc1ccc(-c2cc(C(=O)NC(C)c3cnccn3)cc(-n3nc(C)nc3C(C)C)c2)cc1 (stereo not drawn) [Compound 30, 5-(5-Isopropyl-3-methyl-[1,2,4]triazol-1-yl)-4′-methyl-biphenyl-3-carboxylic acid (1-pyrazin-2-yl-ethyl)-amide] has a Ki (rat P2X3 receptor) of 0.00457 µM and a Ki (human P2X2/3 receptor; [1]) of 0.135 µM.

Work on Cc1ccc(-c2cc(C(=O)NC(C)c3cnccn3)cc(-n3c(C)nnc3C(C)C)c2)cc1 (stereo not drawn) [Compound 31, 5-(3-Isopropyl-5-methyl-[1,2,4]triazol-4-yl)-4′-methyl-biphenyl-3-carboxylic acid (1-pyrazin-2-yl-ethyl)-amide] yielded a Ki (rat P2X3 receptor) of 0.0355 µM and a Ki (human P2X2/3 receptor; [1]) of 0.398 µM.

Molecule COC[C@@H](C)NC(=O)c1cc(-c2ccc(C)cc2)cc(-n2c(C)nnc2C(C)C)c1 [Compound 32, 5-(3-Isopropyl-5-methyl-[1,2,4]triazol-4-yl)-4′-methyl-biphenyl-3-carboxylic acid ((R)-2-methoxy-1-methyl-ethyl)-amide] has a Ki (rat P2X3 receptor) of 0.427 µM and a Ki (human P2X2/3 receptor; [1]) of 10 µM.

Molecule COC[C@@H](C)NC(=O)c1cc(-c2ccc(C)cc2F)cc(-n2ncnc2C(C)C)c1 [Compound 33, 2′-Fluoro-5-(5-isopropyl-[1,2,4]triazol-1-yl)-4′-methyl-biphenyl-3-carboxylic acid ((R)-2-methoxy-1-methyl-ethyl)-amide] has a Ki (rat P2X3 receptor) of 0.00407 µM and a Ki (human P2X2/3 receptor; [1]) of 1.38 µM.

In the case of Cc1ccc(-c2cc(C(=O)NC(C)CO)cc(-n3ncnc3C(C)C)c2)c(F)c1 (stereo not drawn) [Compound 34, 2′-Fluoro-5-(5-isopropyl-[1,2,4]triazol-1-yl)-4′-methyl-biphenyl-3-carboxylic acid (2-hydroxy-1-methyl-ethyl)-amide], the Ki (rat P2X3 receptor) is reported as 0.00324 µM and the Ki (human P2X2/3 receptor; [1]) is reported as 0.427 µM.

With Cc1ccc(-c2cc(C(=O)N[C@@H](C)CO)cc(-n3ncnc3C(C)C)c2)c(F)c1 [Compound 35, 2′-Fluoro-5-(5-isopropyl-[1,2,4]triazol-1-yl)-4′-methyl-biphenyl-3-carboxylic acid ((S)-2-hydroxy-1-methyl-ethyl)-amide] the Ki (rat P2X3 receptor) was 0.0017 µM, the IC50 (rat P2X3 receptor; text b666, CHO-K1 cells, α,β-meATP 1 μM, read-out: pIC50 for the P2X3 receptor (converted)) was about 0.0017 µM and the Ki (human P2X2/3 receptor; [1]) was 0.417 µM.

Cc1ccc(-c2cc(C(=O)NC(C)c3cnccn3)cc(-n3ncnc3C(C)C)c2)c(F)c1 (stereo not drawn) [Compound 36, 2′-Fluoro-5-(5-isopropyl-[1,2,4]triazol-1-yl)-4′-methyl-biphenyl-3-carboxylic acid (1-pyrazin-2-yl-ethyl)-amide] was tested, and the Ki (rat P2X3 receptor) was 0.00372 µM, the Ki (human P2X2/3 receptor; [1]) was 0.0229 µM and the Ki (human P2X2/3 receptor; text b666, CHO-K1 cells, α,β-meATP 5 μM, read-out: pKi for the P2X2/3 receptor (converted)) was about 0.0229 µM.

In the case of CCn1nncc1-c1cc(C(=O)N[C@H](C)COC)cc(-c2ccc(C)cc2)c1 [Compound 37, 5-(3-Ethyl-3H-[1,2,3]triazol-4-yl)-4′-methyl-biphenyl-3-carboxylic acid ((R)-2-methoxy-1-methyl-ethyl)-amide], the Ki (rat P2X3 receptor) is reported as 0.38 µM and the Ki (human P2X2/3 receptor; [1]) is reported as 6.76 µM.
